The values that follow come from patent US20090012079A1, “Triazolopyridine Compounds” (priority 2006, published 2009).

For the assay, the system named is TNFα release from human peripheral blood mononuclear cells. Kind of assay: TNFα screen: inhibition of LPS-stimulated TNFα release from human peripheral blood mononuclear cells (ELISA). It is filed as cell-based. Conditions: human PBMC, LPS stimulation, 18 hours incubation, TNFα in supernatant by ELISA; read-out: TNF IC50. How it is done:
Venous blood is collected from healthy volunteers and the mononuclear cells purified by centrifugation through Histopaque (Ficoll) cushions. TNFα production from these cells is stimulated by addition of lipopolysaccharide. After 18 hours incubation in the presence of LPS, the cell supernatant is removed and the concentration of TNFα in the supernatant determined by ELISA. Addition of the compounds of the invention reduces the amount of TNFα produced. An IC50 is determined which is equal to the concentration of compound that gives 50% inhibition of TNFα production as compared to the LPS stimulated control wells.
Background: ELISA stands for enzyme-linked immunosorbent assay.
For orientation: IC50 means the point on the concentration scale where inhibition reaches its midpoint. For `CN(C)CCOc1cccc(-n2nc(C(C)(C)C)cc2NC(=O)NCc2ccccc2Sc2ccc3nnc(-c4cc(Cl)ccc4O)n3c2)c1` [Example 1, 1-{5-tert-Butyl-2-[3-(2-dimethylaminoethoxy)phenyl]-2H-pyrazol-3-yl}-3-{2-[3-(5-chloro-2-hydroxyphenyl)-[1,2,4]triazolo[4,3-a]pyridin-6-ylsulfanyl]benzyl}urea], the IC50 was found to be 5.6 nM.

Take `CSCC(C)(C)c1cc(NC(=O)NCc2ccccc2Sc2ccc3nnc(-c4cc(O)ccc4Cl)n3c2)n(-c2cccc(CN(C)C)c2)n1` [Example 2, 1-{2-[3-(2-Chloro-5-hydroxy-phenyl)-[1,2,4]triazolo[4,3-a]pyridin-6-ylsulfanyl]benzyl}-3-[2-(3-dimethylaminomethyl-phenyl)-5-(1,1-dimethyl-2-methylsulfanylethyl)-2H-pyrazol-3-yl]urea]: the IC50 turned out to be 2.9 nM.

On to `CN(C)Cc1cccc(-n2nc(C(C)(C)C)cc2NC(=O)NCc2ccccc2Sc2ccc3nnc(-c4cc(Cl)ccc4O)n3c2)c1` [Example 3, 1-[5-tert-Butyl-2-(3-dimethylaminomethylphenyl)-2H-pyrazol-3-yl]-3-(2-[3-(5-chloro-2-hydroxyphenyl)-[1,2,4]triazolo[4,3-a]pyridin-6-ylsulfanyl]benzyl)urea], for which the half-inhibitory concentration (IC50) came out at 4 nM.

Consider `CN(C)Cc1cccc(-n2nc(C(C)(C)C)cc2NC(=O)NCc2ccccc2Sc2ccc3nnc(-c4cc(O)ccc4Cl)n3c2)c1` [Example 4, 1-[5-tert-Butyl-2-(3-dimethylaminomethylphenyl)-2H-pyrazol-3-yl]-3-{2-[3-(2-chloro-5-hydroxy-phenyl)-[1,2,4]triazolo[4,3-a]pyridin-6-ylsulfanyl]benzyl}urea], for which the IC50 is 8.2 nM.

In the case of `CC(C)(C)c1cc(NC(=O)NCc2ccccc2Sc2ccc3nnc(-c4cc(Cl)ccc4O)n3c2)n(-c2cccc(CN3CCOCC3)c2)n1` [Example 5, 1-[5-tert-Butyl-2-(3-morpholin-4-ylmethylphenyl)-2H-pyrazol-3-yl]-3-{2-[3-(5-chloro-2-hydroxyphenyl)-[1,2,4]triazolo[4,3-a]pyridin-6-ylsulfanyl]benzyl}urea], the IC50 amounted to 2.5 nM.

In the case of `CC(C)(C)c1cc(NC(=O)NCc2ccccc2Sc2ccc3nnc(-c4cc(O)ccc4Cl)n3c2)n(-c2cccc(CN3CCOCC3)c2)n1` [Example 6, 1-[5-tert-Butyl-2-(3-morpholin-4-ylmethylphenyl)-2H-pyrazol-3-yl]-3-{2-[3-(2-chloro-5-hydroxyphenyl)-[1,2,4]triazolo[4,3-a]pyridin-6-ylsulfanyl]benzyl}urea], the half-maximal inhibitory concentration (IC50) was 1.8 nM.

For the compound `CC(C)(C)c1cc(NC(=O)NCc2ccccc2Sc2ccc3nnc(-c4ccc(CN5CCOCC5)cc4)n3c2)n(-c2ccc(Cl)c(O)c2)n1` [Example 7, 1-[5-tert-Butyl-2-(4-chloro-3-hydroxyphenyl)-2H-pyrazol-3-yl]-3-{2-[3-(4-morpholin-4-ylmethylphenyl)-[1,2,4]triazolo[4,3-a]pyridin-6-ylsulfanyl]benzyl}urea], the IC50 is 3 nM.

Regarding `CC(C)(C)c1cc(NC(=O)NCc2ccccc2Sc2ccc3nnc(-c4ccc(CN5CCOCC5)cc4)n3c2)n(-c2ccc(O)c(Cl)c2)n1` [Example 8, 1-[5-tert-Butyl-2-(3-chloro-4-hydroxyphenyl)-2H-pyrazol-3-yl]-3-{2-[3-(4-morpholin-4-ylmethylphenyl)-[1,2,4]triazolo[4,3-a]pyridin-6-ylsulfanyl]benzyl}urea], the IC50 came to 5.5 nM.

`CC(C)(C)c1cc(NC(=O)NCc2ccccc2Sc2ccc3nnc(-c4cccc(OCCN5CCOCC5)c4)n3c2)n(-c2ccc(O)c(Cl)c2)n1` [Example 9, 1-[5-tert-Butyl-2-(3-chloro-4-hydroxyphenyl)-2H-pyrazol-3-yl]-3-(2-{3-[3-(2-morpholin-4-ylethoxy)phenyl]-[1,2,4]triazolo[4,3-a]pyridin-6-ylsulfanyl}benzyl)urea]: the half-inhibitory concentration (IC50) worked out at 5.6 nM.

With `CC(C)(C)c1cc(NC(=O)NCc2ccccc2Sc2ccc3nnc(-c4cccc(OCCN5CCOCC5)c4)n3c2)n(-c2ccc(Cl)c(O)c2)n1` [Example 10, 1-[5-tert-Butyl-2-(4-chloro-3-hydroxyphenyl)-2H-pyrazol-3-yl]-3-(2-{3-[3-(2-morpholin-4-yl-ethoxy)phenyl]-[1,2,4]triazolo[4,3-a]pyridin-6-ylsulfanyl}benzyl)urea], the IC50 is 4.3 nM.

For `CSCC(C)(C)c1cc(NC(=O)NCc2ccccc2Sc2ccc3nnc(-c4cc(Cl)ccc4O)n3c2)n(-c2cccc(CN(C)C)c2)n1` [Example 11, 1-{2-[3-(5-Chloro-2-hydroxy-phenyl)-[1,2,4]triazolo[4,3-a]pyridin-6-ylsulfanyl]benzyl}-3-[2-(3-dimethylaminomethyl-phenyl)-5-(1,1-dimethyl-2-methylsulfanylethyl)-2H-pyrazol-3-yl]urea], the IC50 is 4.9 nM.
